For one assay, the target named is JAK1 (Homo sapiens, UniProt P23458). Put plainly: JAK kinase inhibitor activity detection (ULight-JAK-1 substrate, Eu-labeled anti-phosphotyrosine antibody), JAK1. The note with it: JAK1 10 nM, substrate 50 nM, ATP 40 uM, 2 h room temperature. In kind it is biochemical. As to the method: (§1) Activity Detection of Small Molecule Inhibitors of JAK Kinase
(§2) • (1) kinase reaction buffer • Prepare the kinase reaction buffer with the following components: 50 mM HEPES, pH 7.5, 1 mM EGTA, 10 mM MgCl2, 2 mM DTT, 0.01% Tween20 • (2) 1× detection buffer • To prepare detection buffer, dilute 10× detection buffer to 1× with deionized water 9:1 • (3) 4× kinase solution • Dilute JAK to 4× final concentration by JAK reaction buffer (JAK1: 40 nM, JAK2: 0.5 nM) • (4) 4× substrate solution • Dilute ULight™-JAK-1 (Tyr1023) substrate to 200 nM by kinase reaction buffer (final concentration: 50 nM) • (5) 4×ATP solution • Dilute ATP to 4× final concentration by kinase reaction buffer (JAK1: 160 μM, JAK2: 40 μM) • (6) 4× compound testing solution • DMSO dissolves the testing compound into 10 mM stock solution, then prepared to the desired concentration with 3-fold serial dilution, and 10 concentration points were set for each compound. Besides, the final concentration range of the testing compound is: 10 μM-0.5 nM • (7) 4× enzyme reaction termination liquid • 1× test buffer dissolves EDTA to 40 mM (EDTA final concentration: 10 mM) • (8) 4× antibody detection solution • 1× test buffer dilutes Eu labeled antibody (anti-phosphotyrosine (PT66)) to 8 nM (antibody final concentration: 2 nM) 2. Experimental Process • (1) Successively add 2.5 μL 4×JAK solution, and 2.5 μL of diluted 4× test compound solution in different concentrations to the 384 microporous plate, and set 2 multi-wells for each concentration. Meanwhile, set enzyme solution blank control group and negative control group (DMSO group). • (2) Shake the 384-hole plate, mix enzymes and compounds, centrifuge at 1000 rpm for 1 minute, and incubate at room temperature for 60 minutes • (3) Add 2.5 μL of 4× substrate solution to a 384-hole plate and centrifuge at 1000 rpm for 1 min • (4) Add 2.5 μL of 4×ATP solution to the 384 multi-well plate and centrifuge at 1000 rpm for 1 minute to initiate the enzyme reaction. • (5) JAK1 reacts at room temperature for 2 h, and JAK2 react at room temperature for 1 h. • (6) The final concentrations of each group of the JAK1 reaction are: JAK1: 10 nM, substrate: 50 nM, ATP: 40 uM, and the final concentration range of the test compound is: 10 μM-0.5 nM • The final concentrations of each group of the JAK2 reaction are: JAK2: 0.125 nM, substrate: 50 nM, ATP: 10 μM, and the final concentration range of test compounds is: 10 μM-0.5 nM • (7) After the enzyme reaction, add 5 μL of 4× enzyme reaction stop solution to each well of the 384-well plate with 1000 rpm, centrifuge for 1 minute, and incubate at room temperature for 5 min. • (8) Add 5 μL of 4× detection antibody solution to each well of a 384-well plate (final concentration of detection antibody is 2 nM) with 1000 rpm, centrifuge for 1 minute, and incubate at room temperature for 1 h. • (10) After antibody incubation, measure the signal value of each well on an Envision plate reader 3. Data Analysis • (1) Taking the enzyme solution blank control group as 100% inhibition rate and the negative control group (DMSO group) as 0% inhibition rate, calculate the percentage inhibition rate corresponding to each concentration of the tested compounds • (2) In GraphPad Prism software, nonlinear regression analysis is performed on the concentration logarithm of the test compound and the corresponding percentage inhibition rate to obtain the half-inhibitory concentration (IC50) of the test compound.

In another assay the target is JAK2 (Homo sapiens, UniProt O60674). Put plainly: JAK kinase inhibitor activity detection (ULight-JAK-1 substrate, Eu-labeled anti-phosphotyrosine antibody), JAK2. In kind it is biochemical. Conditions: JAK2 0.125 nM, substrate 50 nM, ATP 10 μM, 1 h room temperature. The procedure: as §1, §2

By IC50 is commonly meant the concentration that inhibits the measured activity by half. Read a high IC50 as lower potency.

JAK1, sequence (P23458 whole entry, species assumed): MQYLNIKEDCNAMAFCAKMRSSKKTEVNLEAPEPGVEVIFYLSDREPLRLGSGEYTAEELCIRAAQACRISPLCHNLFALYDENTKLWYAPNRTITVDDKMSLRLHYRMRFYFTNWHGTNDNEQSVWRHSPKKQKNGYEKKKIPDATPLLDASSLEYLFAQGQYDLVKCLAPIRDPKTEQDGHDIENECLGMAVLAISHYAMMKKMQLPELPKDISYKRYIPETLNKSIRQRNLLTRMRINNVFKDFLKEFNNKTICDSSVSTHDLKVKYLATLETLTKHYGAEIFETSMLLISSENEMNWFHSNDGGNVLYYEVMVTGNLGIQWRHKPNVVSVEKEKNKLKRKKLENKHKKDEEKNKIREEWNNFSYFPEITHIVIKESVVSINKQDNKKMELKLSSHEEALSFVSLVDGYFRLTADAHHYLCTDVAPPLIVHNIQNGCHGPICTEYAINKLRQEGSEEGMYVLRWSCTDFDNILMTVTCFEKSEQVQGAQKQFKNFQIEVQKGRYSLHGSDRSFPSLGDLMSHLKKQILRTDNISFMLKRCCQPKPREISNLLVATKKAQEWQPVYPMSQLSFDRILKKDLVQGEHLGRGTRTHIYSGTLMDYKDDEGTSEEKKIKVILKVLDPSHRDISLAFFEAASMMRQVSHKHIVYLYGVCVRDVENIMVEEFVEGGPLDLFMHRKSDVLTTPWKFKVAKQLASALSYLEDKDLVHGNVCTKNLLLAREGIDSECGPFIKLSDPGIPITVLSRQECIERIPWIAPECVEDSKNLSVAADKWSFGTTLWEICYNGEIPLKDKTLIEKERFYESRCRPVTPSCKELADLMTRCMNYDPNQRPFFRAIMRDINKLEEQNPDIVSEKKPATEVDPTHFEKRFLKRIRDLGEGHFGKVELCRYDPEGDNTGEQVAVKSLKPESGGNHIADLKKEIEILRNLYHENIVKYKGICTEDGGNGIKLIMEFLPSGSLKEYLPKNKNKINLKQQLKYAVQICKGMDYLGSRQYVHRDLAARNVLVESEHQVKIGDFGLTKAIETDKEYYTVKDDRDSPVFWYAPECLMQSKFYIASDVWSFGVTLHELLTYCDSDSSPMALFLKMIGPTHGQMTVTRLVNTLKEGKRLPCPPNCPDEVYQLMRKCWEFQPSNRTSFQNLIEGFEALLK
JAK2, sequence (O60674 whole entry, species assumed): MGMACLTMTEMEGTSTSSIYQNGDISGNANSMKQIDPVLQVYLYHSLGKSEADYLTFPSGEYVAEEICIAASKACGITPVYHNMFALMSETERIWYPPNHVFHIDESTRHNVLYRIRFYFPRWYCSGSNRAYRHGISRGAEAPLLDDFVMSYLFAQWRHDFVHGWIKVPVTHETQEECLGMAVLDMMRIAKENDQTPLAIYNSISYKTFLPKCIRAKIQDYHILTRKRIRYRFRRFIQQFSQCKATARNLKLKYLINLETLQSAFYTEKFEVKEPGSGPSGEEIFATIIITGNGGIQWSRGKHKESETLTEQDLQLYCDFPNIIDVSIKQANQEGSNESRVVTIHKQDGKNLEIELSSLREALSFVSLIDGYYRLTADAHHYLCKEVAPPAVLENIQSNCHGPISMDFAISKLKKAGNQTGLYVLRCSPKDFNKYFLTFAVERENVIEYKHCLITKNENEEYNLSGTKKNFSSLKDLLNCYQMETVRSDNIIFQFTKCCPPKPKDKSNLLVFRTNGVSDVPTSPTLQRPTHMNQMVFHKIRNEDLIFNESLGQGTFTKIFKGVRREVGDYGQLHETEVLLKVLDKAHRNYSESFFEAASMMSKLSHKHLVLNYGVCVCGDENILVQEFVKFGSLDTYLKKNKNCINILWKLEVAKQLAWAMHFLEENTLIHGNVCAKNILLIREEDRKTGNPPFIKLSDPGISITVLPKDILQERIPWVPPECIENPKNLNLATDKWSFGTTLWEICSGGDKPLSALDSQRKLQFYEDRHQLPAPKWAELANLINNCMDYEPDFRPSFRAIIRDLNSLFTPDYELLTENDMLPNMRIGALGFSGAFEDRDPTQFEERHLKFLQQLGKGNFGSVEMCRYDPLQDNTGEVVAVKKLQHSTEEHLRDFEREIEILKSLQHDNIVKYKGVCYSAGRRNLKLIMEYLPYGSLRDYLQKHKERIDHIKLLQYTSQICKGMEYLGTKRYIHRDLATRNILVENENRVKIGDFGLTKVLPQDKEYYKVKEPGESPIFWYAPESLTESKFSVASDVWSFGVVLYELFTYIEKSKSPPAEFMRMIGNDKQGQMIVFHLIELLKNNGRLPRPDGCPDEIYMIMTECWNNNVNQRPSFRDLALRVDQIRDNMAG

For the molecule `N#CC=C1CCN(n2cnc3cnc4[nH]ccc4c32)CC1` [Example 16, 2-(1-(imidazo[4,5-d]pyrrolo[2,3-b]pyridin-1(6H)-yl)piperidin-4-ylidene)acetonitrile], the IC50 against JAK1 is 1.31 nM; on JAK2, 16.1 nM.

Regarding `CC[C@@H]1C[C@@H](CC#N)CN1n1cnc2cnc3[nH]ccc3c21` [Example 36-1, 2-((3S,5R)-5-ethyl-1-(imidazo[4,5-d]pyrrolo[2,3-b]pyridine-1(6H)-yl)pyrrolidin-3-yl) acetonitrile], the IC50 turned out to be 6.8 nM on JAK1 and 23.5 nM at JAK2.

On to `N#CCNC1CCN(n2cnc3cnc4[nH]ccc4c32)C1` (centres unmarked) [Example 34, 2-((1-(imidazo[4,5-d]pyrrolo[2,3-b]pyridine-1(6H)-yl)pyrrolidine-3-yl)amino)acetonitrile], for which the IC50 against JAK1 is 73.8 nM; at JAK2, 51.7 nM.

For `C[C@@H](O)c1nc2cnc3[nH]ccc3c2n1N1C2CCC1CC(CC#N)C2` (stereo partly drawn) [Example 23, 2-(8-(2-((R)-1-hydroxyethyl)imidazo[4,5-d]pyrrolo[2,3-b]pyridin-1(6H)-yl)-8-azabicyclo[3.2.1]octan-3-yl)acetonitrile], the IC50 against JAK1 came to 2.71 nM; at JAK2, 6.07 nM.

Take `N#CCN1CCN(n2cnc3cnc4[nH]ccc4c32)CC1` [Example 24, 3-(4-(imidazo[4,5-d]pyrrolo[2,3-b]pyridin-1(6H)-yl)piperazin-1-yl)acetonitrile]: the IC50 at JAK1 was 7.72 nM; against JAK2, 46.6 nM.

Turning to `C[C@@H](O)c1nc2cnc3[nH]ccc3c2n1N1CCC2(CC1)CC2C#N` (stereo partly drawn) [Example 13, 6-(2-((R)-1-hydroxyethyl)imidazo[4,5-d]pyrrolo[2,3-b]pyridine-1(6H)-yl)-6-azaspiro[2.5]octane-1-carbonitrile], the IC50 on JAK1 was determined as 16 nM; against JAK2 it was 56.7 nM.

As to `N#CC=C1CC2CCC(C1)N2n1cnc2cnc3[nH]ccc3c21` [Example 20, 2-(8-(imidazo[4,5-d]pyrrolo[2,3-b]pyridin-1(6H)-yl)-8-azabicyclo[3.2.1]octan-3-ylidene)acetonitrile], the half-inhibitory concentration (IC50) against JAK1 amounted to 4.3 nM; against JAK2, 1.9 nM.

Consider `CC[C@@H]1C[C@H](CC#N)CN1n1cnc2cnc3[nH]ccc3c21` [Example 36-2, 2-((3R,5R)-5-ethyl-1-(imidazo[4,5-d]pyrrolo[2,3-b]pyridine-1(6H)-yl)pyrrolidin-3-yl) acetonitrile], for which the figures for the IC50 against JAK1 and at JAK2 were 43.6 nM and 127 nM, respectively.

As to `N#CCC1CCN(n2cnc3cnc4[nH]ccc4c32)CC1` [Example 2, 2-(1-(imidazo[4,5-d]pyrrolo[2,3-b]pyridine-1(6H)-yl)piperidin-4-yl)acetonitrile], the results for the IC50 at JAK1 and on JAK2 were 0.28 nM and 1.7 nM, respectively.

Consider `N#CC1CCN(n2cnc3cnc4[nH]ccc4c32)CC1` [Example 1, 1-(imidazo[4,5-d]pyrrolo[2,3-b]pyridine-1(6H)-yl)piperidine-4-carbonitrile], for which the concentration for half-maximal inhibition (IC50) on JAK1 is 23.8 nM; on JAK2, 70.9 nM.

As to `N#CC1CC12CCN(n1cnc3cnc4[nH]ccc4c31)CC2` (centres unmarked) [Example 12, 6-(imidazo[4,5-d]pyrrolo[2,3-b]pyridine-1(6H)-yl)-6-azaspiro[2.5]octane-1-carbonitrile], the concentration for half-maximal inhibition (IC50) amounted to 1.77 nM on JAK1 and 3.28 nM against JAK2.

In the case of `CC[C@@H]1C[C@H](C#N)CN1n1cnc2cnc3[nH]ccc3c21` [Example 35, (3S,5R)-5-ethyl-1-(imidazo[4,5-d]pyrrole[2,3-b]pyridine(6H)-yl)pyrrolidine-3-carbonitrile], the figures for the IC50 against JAK1 and at JAK2 were 9.5 nM and 61.3 nM, respectively.

For the molecule `CC1CN(C(=O)CC#N)CN1n1cnc2cnc3[nH]ccc3c21` (centres unmarked) [Example 30, 3-(4-methyl-3-(imidazo[4,5-d]pyrrolo[2,3-b]pyridine-1(6H)-yl)imidazoline-1-yl)-3-Oxopropionitrile], the half-maximal inhibitory concentration (IC50) stood at 2.8 nM on JAK1 and 28.1 nM at JAK2.

Turning to `N#CCC1CCN(n2c(N)nc3cnc4[nH]ccc4c32)CC1` [Example 9, 2-(1-(2-aminoimidazo[4,5-d]pyrrolo[2,3-b]pyridine-1(6H)-yl)piperidin-4-yl)acetonitrile], the results for the concentration for half-maximal inhibition (IC50) at JAK1 and against JAK2 were 0.14 nM and 0.7 nM, respectively.

For the molecule `CCC1CN(CCC#N)CN1n1cnc2cnc3[nH]ccc3c21` (centres unmarked) [Example 29, 3-(4-ethyl-3-(imidazo[4,5-d]pyrrolo[2,3-b]pyridine-1(6H)-yl)imidazolidine-1-yl)propionitrile], the half-inhibitory concentration (IC50) on JAK1 stood at 13.9 nM; against JAK2, 27.5 nM.

As for `N#CCC1(O)CCN(n2cnc3cnc4[nH]ccc4c32)CC1` [Example 19, 2-(4-hydroxy-1-(imidazo[4,5-d]pyrrolo[2,3-b]pyridine-1(6H)-yl)-piperidine-4-yl)acetonitrile], the figures for the IC50 against JAK1 and on JAK2 were 2.37 nM and 6.01 nM, respectively.

As for `N#CCC(=O)N1CCN(n2cnc3cnc4[nH]ccc4c32)C1` [Example 31, 3-(3-(imidazo[4,5-d]pyrrolo[2,3-b]pyridine-1(6H)-yl)imidazoline-1-yl)-3-oxopropionitrile], the IC50 against JAK1 was 6.9 nM; on JAK2, 71.8 nM.

In the case of `CC1(CC#N)CCN(n2cnc3cnc4[nH]ccc4c32)CC1` [Example 17, 2-(1-(imidazo[4,5-d]pyrrolo[2,3-b]pyridine-1(6H)-yl)-4-methylpiperidine-4-yl)acetonitrile], the IC50 is 2 nM against JAK1 and 1.2 nM at JAK2.

For `C[C@@H](O)c1nc2cnc3[nH]ccc3c2n1N1CCC(CC#N)CC1` [Example 7, (R)-2-(1-(2-(1-hydroxyethyl)imidazo[4,5-d]pyrrolo[2,3-b]pyridine-1(6H)-yl)piperidin-4-yl)acetonitrile], the IC50 against JAK1 was found to be 0.08 nM; against JAK2, 4 nM.

Turning to `C[C@H](O)c1nc2cnc3[nH]ccc3c2n1N1CCC(CC#N)CC1` [Example 8, (S)-2-(1-(2-(1-hydroxyethyl)imidazo[4,5-d]pyrrolo[2,3-b]pyridine-1(6H)-yl)piperidin-4-yl)acetonitrile], the figures for the concentration for half-maximal inhibition (IC50) against JAK1 and against JAK2 were 1.5 nM and 5 nM, respectively.

`N#CCC(=O)NC1CCN(n2cnc3cnc4[nH]ccc4c32)C1` (centres unmarked) [Example 33, 2-cyano-N-(1-(imidazo[4,5-d]pyrrolo[2,3-b]pyridine-1(6H)-yl)pyrrolidine-3-yl)acetamide]: the concentration for half-maximal inhibition (IC50) at JAK1 was found to be 11.2 nM; against JAK2 it was 29.1 nM.

With `C[C@@H](O)c1nc2cnc3[nH]ccc3c2n1N1CCC(C(C)(C)C#N)CC1` [Example 15, (R)-2-(1-(2-(1-hydroxyethyl)imidazo[4,5-d]pyrrolo[2,3-b]pyridine-1(6H)-yl)piperidine-4-yl)-2-methyl propionitrile], the half-maximal inhibitory concentration (IC50) on JAK1 stood at 5.14 nM; against JAK2, 16.1 nM.

Consider `CCc1nc2cnc3[nH]ccc3c2n1N1CCC(CC#N)CC1` [Example 4, 2-(1-(ethylimidazo[4,5-d]pyrrolo[2,3-b]pyridine-1(6H)-yl)piperidin-4-yl)acetonitrile], for which the half-maximal inhibitory concentration (IC50) was 0.47 nM against JAK1 and 0.95 nM against JAK2.

In the case of `C[C@@H](O)c1nc2cnc3[nH]ccc3c2n1N1CCC(C)(CC#N)CC1` [Example 18, (R)-2-(1-(2-(1-hydroxyethyl)imidazo[4,5-d]pyrrolo[2,3-b]pyridine-1(6H)-yl)-4-methylpiperidine-4-yl)acetonitrile], the IC50 against JAK1 is 6.31 nM; against JAK2, 13.8 nM.

`C[C@@H](O)c1nc2cnc3[nH]ccc3c2n1N1CCCC(CC#N)CC1` (stereo partly drawn) [Example 27, 2-(1-(2-((R)-1-hydroxyethyl)imidazo[4,5-d]pyrrolo[2,3-b]pyridin-1(6H)-yl)-6-azepan-4-yl)acetonitrile]: the results for the IC50 against JAK1 and against JAK2 were 1.7 nM and 2.3 nM, respectively.

The record behind these values is patent US12478620B2, “Cyano-substituted cyclic hydrazine derivative and application thereof” (E-nitiate Biopharmaceuticals (Hangzhou) Co., Ltd, priority 2019, dated 2025).
